Patent publication US9578878B2, “Antimicrobial efficacy of an oregano oil and caprylic acid blend” (Kemin Industries, Inc., priority 2014, dated 2017)

Columns and labels:
Test in all cases: Preservative efficacy testing in cream, Example 2 (Study 1 and 2)
Type in all cases: cell-based
[1] = tested on: Aspergillus brasiliensis (ATCC #16404)
Experimental: (§1) Oregano essential oil containing 67.8% carvacrol (lot number 628034, thymol was not detectable) was received from Kemin SCI. Caprylic acid was obtained from Fisher Scientific (catalog number AC12939). To make MicroCurb OC, a blend with 10% oregano essential oil and 90% caprylic acid (w/w) was prepared for initial testing. The solution was mixed thoroughly for 10 seconds by a vortex mixer until a clear, homogenous mixture was obtained, resulting in the product MicroCurb OC.
(§2) Creams were prepared aseptically by spraying 70% isopropyl alcohol on all surfaces and glassware. Preservative studies were completed at different times for caprylic acid alone (Study 1) and MicroCurb OC (Study 2). Tables 5 and 6 list the various ingredients and their percentages used in Study 1 and 2, respectively.
(§3) De-ionized water was added to a pre-weighed 250 mL beaker and mixed at 800 rpm using an overhead mixer (Eurostar power-b IKA-WERKE, Wilmington, N.C.) with a 3 blade impeller. Carbomer 940 was slowly added to the center of the mixing water. The mixture was hydrated for 30 minutes while covered with aluminum foil. Glycerin and Lysofix were slowly added to the solution. After solution appeared homogenous, safflower oil, olive oil, and coco caprylate were slowly added to the mixture at 1000 rpm. The solution was mixed for 30 minutes while covered with aluminum foil. Next the pH was measured (around 3.2) and adjusted to 5.5 with a 33.3% sodium hydroxide solution. The mixing speed was increased to 1400 rpm. From time to time, it was necessary to scrape the sides of the beaker with a spatula to ensure that the cream became homogenized. After 5 minutes, the cream was weighed and water was replenished for the mass lost during the processing.
(§4) Microorganisms Escherichia coli (ATCC #8739), Staphylococcus aureus (ATCC #6538), Pseudomonas aeruginosa (ATCC #9027), and Candida albicans (ATCC #10231) were obtained from −80° C. internal stock cultures. Aspergillus brasiliensis (ATCC #16404) was obtained from an internal stock solution stored at 4° C. E. coli, S. aureus, and P. aeruginosa were grown in TSB and incubated at 37° C. for 24 h. A. brasiliensis was plated on SDA and incubated at 25° C. for 5-7 days. C. albicans was grown in SDB and incubated at 25° C. for 48 h.
(§5) Pathogens in broth were harvested by centrifugation (2400 rpm, 20 minutes) and suspended in sterile phosphate buffer. A. brasiliensis was harvested by adding 18 mL sterile phosphate buffer to the plate and agitating the mold from the agar with a sterile inoculating loop. The spores were collected upon agitation. All suspended microbes were diluted with sterile phosphate buffer until a concentration in the range of 10^8 CFU/mL was achieved. The concentration was determined by plate count method. Each strain was identified by plating on the appropriate growth media, E. coli, S. aureus, and P. aeruginosa on TSA and C. albicans and A. brasiliensis on SDA, to ensure there was no contamination of the inoculum.
(§6) Preservative Efficacy Testing. Each tube was inoculated with the standardized microbial suspensions, using a ratio of 1 mL to 10 grams of the product, ensuring that the inoculum after suspension would yield the target level of 6-log CFU/g cream. For every testing time point, the sample was enumerated by sampling 1 g from the original product containers, serial dilution, and streaking plates containing the appropriate growth media to test colonization in duplicate. The inoculated plates were incubated at 25° C. for C. albicans and A. niger and 37° C. for E. coli, S. aureus, and P. aeruginosa. The number of viable microorganisms per gram was calculated via plate count method. The samples were enumerated on day 0, 2, 3, 5, 7, 14, and 28.
(§7) The plate counts obtained each day were averaged for each treatment. The results were shown graphically by the log count of each averaged value per treatment per day. For plates that had no growth, the lowest dilution plated was recorded.

[2] = tested on: Candida albicans (ATCC #10231); conditions: Study 1, cream with 0.5% or 1.0% caprylic acid, after 2 days
Experimental: as §1, §2, §3, §4, §5, §6, §7

[3] = tested on: Escherichia coli (ATCC #8739); conditions: Study 1, cream with 0.5% or 1.0% caprylic acid, after 3 days
Experimental: as §1, §2, §3, §4, §5, §6, §7

[4] = tested on: Pseudomonas aeruginosa (ATCC #9027); conditions: Study 1, cream with 0.5% or 1.0% caprylic acid, after 2 days
Experimental: as §1, §2, §3, §4, §5, §6, §7

[5] = tested on: Staphylococcus aureus (ATCC #6538); conditions: Study 1, cream with 0.5% or 1.0% caprylic acid, after 2 days
Experimental: as §1, §2, §3, §4, §5, §6, §7

Question: Which “Log reduction of A. brasiliensis” value ([1]; Study 1, cream with caprylic acid, by the end of the study (28 days)) does the source give for `CCCCCCCC(=O)O` [Caprylic Acid, octanoic acid] here?
Answer: 2 log

Question: And the “Ability to reduce the mold in cream” value ([1]; caprylic acid alone as control)?
Answer: unable to reduce the mold

Question: What about the “Log reduction of C. albicans” value [2] of the same compound?
Answer: 5 log

Question: What about the “Log reduction of E. coli” value [3] of the same compound?
Answer: 5 log

Question: And the “Log reduction of P. aeruginosa” value [4]?
Answer: 5 log

Question: And the “Log reduction of S. aureus” value [5]?
Answer: 5 log
